The molecules below were run on Human RSV-A (“Long” strain) (assay: RSV in vitro cytoprotection assay in HEp-2 cells (ATPlite read-out)). Conditions: human respiratory syncytial virus, 96 h; HEp-2 cells, genotype A “Long” strain RSV, 4-day incubation, ATPlite; read-out: Human RSV-A (“Long” strain) EC50.
Format: cell-based
Excerpt: RSV is a single stranded negative sense RNA virus that causes respiratory tract infections which can be dangerous to infants, the elderly, and immunosuppressed individuals. Currently there is no vaccine, and therapeutic options are both costly and of limited effectiveness. These approved treatments are Ribavirin, and Palivizumab/Synagis (a monoclonal antibody). RSV has two genotypes, A and B, which differ primarily in the structure of the virus' surface “G” attachment protein. Our current primary screen focusses on RSV-A and uses an in vitro cytoprotection assay where compounds are added in 2-fold dilutions to cells which are then subjected to fully replicative viral particles. Cell viability is measured several days later along with separate measurements of compound cytotoxicity. This report focuses on the results of our most recent screening of compounds.
HEp-2 cells, (originally derived from tumors grown in irradiated-cortisonised weanling rats that had been injected with epidermoid carcinoma tissue from a person's larynx, but later found to be indistinguishable from HeLa cells by PCR DNA analysis), were used for the culturing of genotype A, “Long” strain RSV. Flasks were inoculated with RSV and viral stocks were collected once cytopathic effect (CPE) was greater than 90%. Viral stocks in 25% sucrose media were snap frozen using liquid nitrogen to increase viral stability. Viral stock titers were quantified by tissue culture infectious dose 50% (TCID50) using 8,000 cells per well and 3-fold viral dilutions across a 96-well plate, cultured for 4 days.
Following extensive parameter testing, the final assay is run as follows: HEp-2 cells are seeded into the inner 60 wells of a 96-well plate at 8,000 cells per well in a volume of 50 μL using Growth Media (DMEM without phenol red, 1% L-Glut, 1% Penn/Strep, 1% nonessential amino acids, 10% FBS). 2-Fold serial dilutions of control and test compounds are added to the wells in duplicate in a total volume of 25 μL. Viral stock is then added to the wells in a volume of 25 μL, bringing the total volume of each well to 100 μL. Each 96-well plate has a control column of 6 wells with cells and virus but no compound (negative control, max CPE), a column with cells but no compound or virus (positive control, minimum CPE), and a column with no cells or virus or compound (background plate/reagent control). The control wells with cells but no virus are given an additional 25 μL of growth media containing an equal quantity of sucrose as those wells receiving the viral stock in order to keep consistent in media and volume conditions. The outer wells of the plate are filled with 125 μL of growth media to act as a thermal and evaporative moat around the test wells. Following a 4-day incubation period, the plates are read using ATPlite (50 uL added per well), which quantifies the amount of ATP (a measure of cell health) present in each well. Assay plates are read using the Envision luminometer. In parallel, cytotoxicity is examined on an additional 96-well plate treated in an identical manner, but substituting the 25 μL of viral stock for 25 μL of growth media. […] EC50 ranges are as follows: A<0.01 μM; B 0.01-0.05 μM; C>0.05 μM.

Row | SMILES | EC50
1 | Cc1cnc(N2CC3(CCOCC3)C2)c(C(=O)Nc2ccc(C(=O)N3CCC(c4ccc(C(=O)NC5CC5)s4)=Cc4ccccc43)cc2)c1 [Example 1] | < 10 nM
2 | Cc1cnc(N2CC3(CCOCC3)C2)c(C(=O)Nc2ccc(C(=O)N3CCC(c4ccc(C(=O)NC5CCC5)s4)=Cc4ccccc43)cc2)c1 [Example 3] | < 10 nM
3 | Cc1cnc(N2CC3(CCOCC3)C2)c(C(=O)Nc2ccc(C(=O)N3CCC(c4ccc(C(=O)NC5CC(F)(F)C5)s4)=Cc4ccccc43)cc2)c1 [Example 4] | < 10 nM
4 | Cc1cnc(N2CC3(CCOCC3)C2)c(C(=O)Nc2ccc(C(=O)N3CCC(c4ccc(C(=O)NC56CC(C5)C6)s4)=Cc4ccccc43)cc2)c1 [Example 5] | 10 to 50 nM
5 | Cc1cnc(N2CC3(CCOCC3)C2)c(C(=O)Nc2ccc(C(=O)N3CCC(c4cc(C(=O)NC5CC5)cs4)=Cc4ccccc43)cc2)c1 [Example 12] | 10 to 50 nM
6 | CC1=C(c2ccc(C(=O)NC3CC3)s2)CCN(C(=O)c2ccc(NC(=O)c3cc(C)cnc3N3CC4(CCOCC4)C3)cc2)c2ccccc21 [Example 13] | > 50 nM
7 | CC1=C(c2ccc(C(=O)Nc3c(C)cccc3F)s2)CCN(C(=O)c2ccc(NC(=O)c3cc(C)cnc3N3CC4(CCOCC4)C3)cc2)c2ccccc21 [Example 14] | > 50 nM
8 | Cc1cnc(N2CC3(CCOCC3)C2)c(C(=O)Nc2ccc(C(=O)N3CCC(c4ccc(C(=O)NC5CC5)cc4)=Cc4ccccc43)cc2)c1 [Example 15] | < 10 nM

Next, values leading:

Row | EC50 | SMILES
9 | < 10 nM | Cc1cnc(N2CC3(CCOCC3)C2)c(C(=O)Nc2ccc(C(=O)N3CCC(c4ccc(C(=O)Nc5c(F)cccc5F)s4)=Cc4ccccc43)cc2)c1 [Example 2]
10 | 10 to 50 nM | Cc1cnc(N2CC3(CCOCC3)C2)c(C(=O)Nc2ccc(C(=O)N3CCC(c4ccc(C(=O)Nc5c(C)cccc5F)s4)=Cc4ccccc43)cc2)c1 [Example 6]
11 | 10 to 50 nM | Cc1ccc(C(=O)Nc2ccc(C(=O)N3CCC(c4ccc(C(=O)Nc5c(F)cccc5F)s4)=Cc4ccccc43)cc2)c(N2CC3(CCOCC3)C2)n1 [Example 7]
12 | 10 to 50 nM | Cc1ccc(C(=O)Nc2ccc(C(=O)N3CCC(c4ccc(C(=O)Nc5c(C)cccc5F)s4)=Cc4ccccc43)cc2)c(N2CC3(CCOCC3)C2)n1 [Example 8]
13 | 10 to 50 nM | Cc1ccc(C(=O)Nc2ccc(C(=O)N3CCC(c4ccc(C(=O)NC5CC(F)(F)C5)s4)=Cc4ccccc43)cc2)c(N2CC3(CCOCC3)C2)n1 [Example 9]
14 | < 10 nM | Cc1ccc(C(=O)Nc2ccc(C(=O)N3CCC(c4ccc(C(=O)NC5CCC5)s4)=Cc4ccccc43)cc2)c(N2CC3(CCOCC3)C2)n1 [Example 10]
15 | 10 to 50 nM | Cc1ccc(C(=O)Nc2ccc(C(=O)N3CCC(c4ccc(C(=O)NC56CC(C5)C6)s4)=Cc4ccccc43)cc2)c(N2CC3(CCOCC3)C2)n1 [Example 11]
16 | < 10 nM | Cc1cnc(N2CC3(CCOCC3)C2)c(C(=O)Nc2ccc(C(=O)N3CCC(c4ccc(C(=O)Nc5c(C)cccc5F)cc4)=Cc4ccccc43)cc2)c1 [Example 16]

Same assay, conditions: human respiratory syncytial virus, HEp-2

Row | SMILES | EC50
17 | O=C(Nc1ccccc1F)N[C@H]1N=C(c2ccccc2)c2ccccc2NC1=O [RSV-604, reference compound] | ~2400 nM
